Results on 63 compounds are retold here after patent US7807703B2, “Substituted aryl ketones” (Bayer CropScience AG, priority 2002, dated 2010).

Molecules are shown by their SMILES.

One data set can be described thus: log P determination by reversed-phase HPLC (EEC Directive 79/831 Annex V.A8; acidic or neutral mobile phase). The class given is physicochemical. The settings on record: HPLC reversed-phase C18, 43° C., acidic range: 0.1% aqueous phosphoric acid, acetonitrile (marked a)). The procedure: The log P values given in the table were determined in accordance with EEC Directive 79/831 Annex V.A8 by HPLC (High Performance Liquid Chromatography) using a reversed-phase column (C 18). Temperature: 43° C.
(a) Mobile phases for the determination in the acidic range: 0.1% aqueous phosphoric acid, acetonitrile; linear gradient from 10% acetonitrile to 90% acetonitrile—the corresponding measurement results are marked a) in Table 1.
(b) Mobile phases for the determination in the neutral range: 0.01 molar aqueous phosphate buffer solution, acetonitrile; linear gradient from 10% acetonitrile to 90% acetonitrile—the corresponding measurement results are marked b) in Table 1.
With `CS(=O)(=O)c1ccc(C(=O)C2C(=O)CCCC2=O)c(Cl)c1CNOCc1ccccc1` [Example 199], the logP entry is given as “(I-2) logP = 3.04^a)”.

With `CCn1ncc(C(=O)c2ccc(S(C)(=O)=O)c(CNOCc3ccccc3)c2Cl)c1O` [Example 200], the logP result was “(I-2) logP = 2.31^a)”.

Consider `CON(Cc1cccnc1)Cc1c(S(C)(=O)=O)ccc(C(=O)C2C(=O)CCCC2=O)c1Cl` [Example 216], for which the logP result was “(I-2) logP = 1.47^a)”.

The same data set, now with this note: HPLC reversed-phase C18, 43° C.; acidic range: 0.1% aqueous phosphoric acid, acetonitrile gradient (marked a)).
Take `O=C1CCCC(=O)C1C(=O)c1ccc(Cl)c(OCCNS(=O)(=O)CCl)c1Cl` [Example 7]: the logP result is recorded as “logP = 2.57^a)”.

As for `CCn1ncc(C(=O)c2ccc(Cl)c(OCCNS(=O)(=O)CCl)c2Cl)c1O` [Example 8], the logP entry is given as “logP = 2.05^a)”.

For the compound `O=C1CCCC(=O)C1C(=O)c1ccc(Cl)c(OCCNS(=O)(=O)C(F)(F)F)c1Cl` [Example 9], the logP result is listed as “logP = 3.25^a)”.

For the compound `CCn1ncc(C(=O)c2ccc(Cl)c(OCCNS(=O)(=O)C(F)(F)F)c2Cl)c1O` [Example 10], the logP entry is on record as “logP = 2.72^a)”.

For the compound `CCn1ncc(C(=O)c2ccc(S(C)(=O)=O)c(CN(C)OC)c2Cl)c1O` [Example 11], the logP entry is on record as “logP = 1.78^a)”.

For `CCn1nc(C)c(C(=O)c2ccc(S(C)(=O)=O)c(CN(C)OC)c2Cl)c1O` [Example 12], the logP result is given as “logP = 1.45^a)”.

With `CCn1ncc(C(=O)c2ccc(S(C)(=O)=O)c(OCCNS(C)(=O)=O)c2Cl)c1O` [Example 13], the logP entry was “logP = 1.23^a)”.

For the compound `CS(=O)(=O)NCCOc1c(S(C)(=O)=O)ccc(C(=O)C2C(=O)CCCC2=O)c1Cl` [Example 14], the logP result was “logP = 1.76^a)”.

For the compound `CCn1ncc(C(=O)c2ccc(Br)c(OCCNS(C)(=O)=O)c2Br)c1O` [Example 17], the logP entry is recorded as “logP = 1.71^a)”.

With `CS(=O)(=O)NCCOc1c(Br)ccc(C(=O)C2C(=O)CCCC2=O)c1Br` [Example 18], the logP entry is given as “logP = 2.23^a)”.

Take `CCS(=O)(=O)NCCOc1c(Br)ccc(C(=O)C2C(=O)CCCC2=O)c1Br` [Example 20]: the logP result is given as “logP = 2.45^a)”.

As to `CCn1ncc(C(=O)c2ccc(Cl)c(OCCNS(=O)(=O)C(C)C)c2Cl)c1O` [Example 24], the logP result was “logP = 2.07^a)”.

On to `CC(C)S(=O)(=O)NCCOc1c(Cl)ccc(C(=O)C2C(=O)CCCC2=O)c1Cl` [Example 25], for which the logP entry was “logP = 2.50^a)”.

As for `CCn1ncc(C(=O)c2ccc(Cl)c(OCCNS(=O)(=O)c3cccs3)c2Cl)c1O` [Example 34], the logP result is recorded as “(I-2) logP = 2.41^a)”.

On to `O=C1CCCC(=O)C1C(=O)c1ccc(Cl)c(OCCNS(=O)(=O)c2cccs2)c1Cl` [Example 35], for which the logP entry is given as “(I-2) logP = 2.92^a)”.

Take `CONCc1c(Cl)ccc(C(=O)C2C(=O)CCCC2=O)c1Cl` [Example 129]: the logP entry was “logP = 2.33^a)”.

With `CCn1ncc(C(=O)c2ccc(Cl)c(CNOC)c2Cl)c1O` [Example 130], the logP entry is given as “logP = 1.68^a)”.

In the case of `CCONCc1c(Cl)ccc(C(=O)C2C(=O)CCCC2=O)c1Cl` [Example 133], the logP result is given as “logP = 2.75^a)”.

As for `CCONCc1c(Cl)ccc(C(=O)c2cnn(CC)c2O)c1Cl` [Example 134], the logP result is “logP = 2.07^a)”.

As to `CCONCc1c(S(C)(=O)=O)ccc(C(=O)c2cnn(CC)c2O)c1Cl` [Example 136], the logP result was “logP = 1.58^a)”.

Regarding `CON(C)Cc1c(S(C)(=O)=O)ccc(C(=O)C2C(=O)CCCC2=O)c1Cl` [Example 145], the logP entry is “logP = 2.49^a)”.

Consider `CCN(Cc1c(Cl)ccc(C(=O)C2C(=O)CCCC2=O)c1Cl)OC` [Example 148], for which the logP result is recorded as “logP = 3.63^a)”.

Regarding `CCN(Cc1c(S(C)(=O)=O)ccc(C(=O)c2cnn(CC)c2O)c1Cl)OC` [Example 149], the logP result is recorded as “logP = 2.16^a)”.

Regarding `CCN(Cc1c(S(C)(=O)=O)ccc(C(=O)C2C(=O)CCCC2=O)c1Cl)OC` [Example 150], the logP entry is given as “logP = 2.87^a)”.

Take `CCn1ncc(C(=O)c2ccc(S(C)(=O)=O)c(CN(Cc3ccccc3)OC)c2Cl)c1O` [Example 153]: the logP result is “(I-2) logP = 2.82^a)”.

For the compound `C=CCN(Cc1c(S(C)(=O)=O)ccc(C(=O)c2cnn(CC)c2O)c1Cl)OC` [Example 157], the logP result is on record as “(I-2) logP = 2.29^a)”.

For the compound `C=CCN(Cc1c(S(C)(=O)=O)ccc(C(=O)C2C(=O)CCCC2=O)c1Cl)OC` [Example 158], the logP entry was “(I-2) logP = 3.01^a)”.

For `CCCS(=O)(=O)NCCOc1c(Cl)ccc(C(=O)c2cnn(CC)c2O)c1Cl` [Example 167], the logP entry is recorded as “logP = 2.15^a)”.

Turning to `CCCS(=O)(=O)NCCOc1c(Cl)ccc(C(=O)C2C(=O)CCCC2=O)c1Cl` [Example 168], the logP entry is on record as “logP = 2.67^a)”.

Staying with this data set, now noted: HPLC reversed-phase C18, 43° C.; no a)/b) mark printed, mobile phase not given.
Regarding `CON(C)Cc1c(Cl)ccc(C(=O)C2C(=O)CCCC2=O)c1Cl` [Example 1, 2-[2,4-dichloro-3-(N-methoxy-N-methylaminomethyl)benzoyl]-1,3-cyclohexanedione], the logP result is recorded as “logP = 3.04”.

Still in this data set, the particulars now being: HPLC, reversed-phase C18, 43° C.; acidic range a): 0.1% aqueous phosphoric acid, acetonitrile, linear gradient 10% to 90% acetonitrile.
Turning to `Cn1ncc(C(=O)c2ccc(Cl)c(OCCNS(C)(=O)=O)c2Cl)c1O` [Example 353], the logP result was “logP = 1.36^a)”.

For `CCn1ncc(C(=O)c2ccc(Cl)c(OCCNS(C)(=O)=O)c2Cl)c1O` [Example 354], the logP result is on record as “logP = 1.54^a)”.

For `CCn1nc(C)c(C(=O)c2ccc(Cl)c(OCCNS(C)(=O)=O)c2Cl)c1O` [Example 355], the logP result is reported as “logP = 1.32^a)”.

Regarding `CCn1ncc(C(=O)c2ccc(Cl)c(OCCNS(=O)(=O)CC)c2C)c1O` [Example 358], the logP result was “logP = 2.03^a)”.

Take `CCS(=O)(=O)NCCOc1c(Cl)ccc(C(=O)C2C(=O)CCCC2=O)c1C` [Example 359]: the logP entry was “logP = 2.33^a)”.

Consider `CCn1ncc(C(=O)c2ccc(Cl)c(OCCNS(C)(=O)=O)c2C)c1O` [Example 360], for which the logP result was “logP = 1.82^a)”.

In the case of `Cc1c(C(=O)C2C(=O)CCCC2=O)ccc(Cl)c1OCCNS(C)(=O)=O` [Example 361], the logP entry is recorded as “logP = 2.13^a)”.

`CCn1ncc(C(=O)c2ccc(Br)c(OCCNS(=O)(=O)CC)c2C)c1O` [Example 362]: the logP result is listed as “logP = 2.09^a)”.

On to `CCS(=O)(=O)NCCOc1c(Br)ccc(C(=O)c2cnn(C)c2O)c1C` [Example 363], for which the logP result is listed as “logP = 1.77^a)”.

As for `CCS(=O)(=O)NCCOc1c(Br)ccc(C(=O)C2C(=O)CCCC2=O)c1C` [Example 364], the logP result is “logP = 2.41^a)”.

With `CCn1ncc(C(=O)c2ccc(Br)c(OCCNS(C)(=O)=O)c2C)c1O` [Example 365], the logP result is listed as “logP = 1.89^a)”.

As to `Cc1c(C(=O)c2cnn(C)c2O)ccc(Br)c1OCCNS(C)(=O)=O` [Example 366], the logP entry is “logP = 1.56^a)”.

With `Cc1c(C(=O)C2C(=O)CCCC2=O)ccc(Br)c1OCCNS(C)(=O)=O` [Example 367], the logP result was “logP = 2.19^a)”.

Take `CCN(Cc1c(S(C)(=O)=O)ccc(C(=O)c2cnn(C)c2O)c1Cl)OC` [Example 369]: the logP entry is “logP = 1.84^a)”.

Consider `CCn1ncc(C(=O)c2ccc(S(C)(=O)=O)c(CN(OC)C(C)C)c2Cl)c1O` [Example 370], for which the logP result is reported as “logP = 2.52^a)”.

As to `CON(Cc1c(S(C)(=O)=O)ccc(C(=O)c2cnn(C)c2O)c1Cl)C(C)C` [Example 371], the logP entry was “logP = 2.16^a)”.

Staying with this data set, now noted: HPLC, reversed-phase C 18, 43° C.; mobile phase range not marked.
For the compound `CCn1ncc(C(=O)c2ccc(S(C)(=O)=O)c(CNOC)c2Cl)c1O` [Example 299], the “logP (HPLC, mobile phase not marked)” value is given as 1.20.

Regarding `CON(C)Cc1c(S(C)(=O)=O)ccc(C(=O)C2C(=O)CCCC2=O)c1Cl` [Example 303], the “logP (HPLC, mobile phase not marked)” value is “(I-2) 2.49”.

For the compound `CCn1ncc(C(=O)c2ccc(S(C)(=O)=O)c(CN(C)OC)c2Cl)c1O` [Example 304], the “logP (HPLC, mobile phase not marked)” value stood at 1.78.

In the case of `CCn1nc(C)c(C(=O)c2ccc(S(C)(=O)=O)c(CN(C)OC)c2Cl)c1O` [Example 307], the “logP (HPLC, mobile phase not marked)” value is on record as 1.45.

Turning to `CCN(Cc1c(S(C)(=O)=O)ccc(C(=O)C2C(=O)CCCC2=O)c1Cl)OC` [Example 308], the “logP (HPLC, mobile phase not marked)” value was “(I-2) 2.87”.

As to `CCN(Cc1c(S(C)(=O)=O)ccc(C(=O)c2cnn(CC)c2O)c1Cl)OC` [Example 309], the “logP (HPLC, mobile phase not marked)” value is reported as 2.16.

For `CCN(Cc1c(S(C)(=O)=O)ccc(C(=O)c2cnn(C)c2O)c1Cl)OC` [Example 310], the “logP (HPLC, mobile phase not marked)” value is given as 1.84.

Take `CCn1ncc(C(=O)c2ccc(S(C)(=O)=O)c(CN(Cc3ccccc3)OC)c2Cl)c1O` [Example 334]: the “logP (HPLC, mobile phase not marked)” value came out at 2.82.

`CON(Cc1ccccc1)Cc1c(S(C)(=O)=O)ccc(C(=O)c2cnn(C)c2O)c1Cl` [Example 335]: the “logP (HPLC, mobile phase not marked)” value is 2.48.

Consider `CON(Cc1c(S(C)(=O)=O)ccc(C(=O)C2C(=O)CCCC2=O)c1Cl)C(C)C` [Example 343], for which the “logP (HPLC, mobile phase not marked)” value is listed as “(I-2) 3.26”.

As to `CCn1ncc(C(=O)c2ccc(S(C)(=O)=O)c(CN(OC)C(C)C)c2Cl)c1O` [Example 344], the “logP (HPLC, mobile phase not marked)” value is listed as 2.52.

On to `CON(Cc1c(S(C)(=O)=O)ccc(C(=O)c2cnn(C)c2O)c1Cl)C(C)C` [Example 345], for which the “logP (HPLC, mobile phase not marked)” value was 2.16.

Turning to `CS(=O)(=O)c1ccc(C(=O)C2C(=O)CCCC2=O)c(Cl)c1CNOCc1ccccc1` [Example 348], the “logP (HPLC, mobile phase not marked)” value is given as “(I-2) 3.04”.

Turning to `CCn1ncc(C(=O)c2ccc(S(C)(=O)=O)c(CNOCc3ccccc3)c2Cl)c1O` [Example 349], the “logP (HPLC, mobile phase not marked)” value came to 2.31.

The data set is the same for the next values; noted with them: reversed-phase C18 HPLC column; HPLC, reversed-phase C 18, 43° C.; mobile phase range not marked; read-out: log P.
As to `CON(C)Cc1c(Cl)ccc(C(=O)C2C(=O)CCCC2=O)c1Cl` [Example 1, 2-[2,4-dichloro-3-(N-methoxy-N-methylaminomethyl)benzoyl]-1,3-cyclohexanedione], the chromatographic logP amounted to 3.04.
